From ChEMBL document CHEMBL1201862, “PubChem BioAssay data set” (2004)
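Exposure lasted 48 hours, with cells grown in 96-well plates and compounds tested at five concentrations. At the GI50, growth is halved.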 Activity calls are given as the source filed them. Cut-off read from the data, not from the text of the source: active = GI50 up to about 1.1 µM and inactive = higher.

Columns and labels:
Assay in all cases: NCI tumour cell line growth inhibition, 48 h
DMS-273 = tested on: DMS-273
DMS-114 = tested on: DMS-114
LXFL 529 = tested on: LXFL 529
RXF 631 = tested on: RXF 631
Hs-578T = tested on: Hs-578T
NCI/ADR-RES = tested on: NCI/ADR-RES
MDA-N = tested on: MDA-N
MCF7 = tested on: MCF7
DU-145 = tested on: DU-145

| Compound | GI50 (DMS-273) | GI50 (DMS-114) | GI50 (LXFL 529) | GI50 (RXF 631) | GI50 (Hs-578T) | GI50 (NCI/ADR-RES) | GI50 (MDA-N) | GI50 (MCF7) | GI50 (DU-145) |
| --- | --- | --- | --- | --- | --- | --- | --- | --- | --- |
| O=C1c2ccccc2C(=O)c2[nH]cnc21 | 46.8 µM (inactive) | 31.5 µM (inactive) | – | – | – | – | – | – | – |
| COC(=O)C(=O)C(C(=O)C(=O)Nc1ccc([N+](=O)[O-])cc1C#N)c1nc2ccc([N+](=O)[O-])cc2nc1O (stereo unspecified) | > 100 µM (inactive) | > 100 µM (inactive) | > 100 µM (inactive) | – | – | – | – | – | – |
| c1cc2nnsc2s1 | 70.6 µM (inactive) | – | 90.8 µM (inactive) | – | – | – | – | – | – |
| CC1=C(C(=O)CC(=O)C(=O)Nc2ccccc2C(F)(F)F)Sc2ccccc2N1 | 40.2 µM (inactive) | 32.6 µM (inactive) | 35.7 µM (inactive) | 86.5 µM (inactive) | – | – | – | – | – |
| Nc1nc(-c2ccco2)cc(-c2ccc(CO)o2)n1 | > 100 µM (inactive) | > 100 µM (inactive) | > 100 µM (inactive) | – | – | – | – | – | – |
| CCOC(=O)C1Cc2[nH]c3ccccc3c2C(C)C1C (stereo unspecified) | 15.1 µM (inactive) | 22.3 µM (inactive) | 19.9 µM (inactive) | – | – | – | – | – | – |
| CC12C/C(=C\c3ccccc3)C(=O)C3C1CCCC32 | 42.6 µM (inactive) | 41.6 µM (inactive) | 56.9 µM (inactive) | > 100 µM (inactive) | – | – | – | – | – |
| CCOC(=O)c1ccc(/N=N/c2cc(C(=O)OCC)ccc2O)cc1 | > 100 µM (inactive) | > 100 µM (inactive) | > 100 µM (inactive) | – | – | – | – | – | – |
| CC1(C)C2C/C(=C\c3ccccc3)C(=O)C1C2 (stereo unspecified) | > 100 µM (inactive) | 68.1 µM (inactive) | > 100 µM (inactive) | > 100 µM (inactive) | – | – | – | – | – |
| O=C(CC1(O)C(=O)Nc2c(Cl)cc(Cl)cc21)c1cccc2ccccc12 (stereo unspecified) | 13.7 µM (inactive) | 17.9 µM (inactive) | 15.3 µM (inactive) | 18.1 µM (inactive) | – | – | – | – | – |
| O=c1c2cc(Br)cc(Br)c2nc(CCCl)n1CCO | – | 42.4 µM (inactive) | 77.6 µM (inactive) | > 100 µM (inactive) | – | – | – | – | – |
| CC(=O)OCCOCNC(=S)N/N=C/c1ccc(Br)s1 | > 87.7 µM (inactive) | 33.3 µM (inactive) | > 70.3 µM (inactive) | – | – | – | – | – | – |
| COc1ccc(/N=C(/[N-]n2c(=O)c(C)nn(C)c2=S)N(c2ccc(OC)cc2)c2n[n+]3c(=O)c(C)nn(C)c3s2)cc1 | > 100 µM (inactive) | > 100 µM (inactive) | > 100 µM (inactive) | – | – | – | – | – | – |
| CS(=O)(=O)N(CCC#N)c1ccc(/C=N/NC(=O)CC(=O)Nc2cccc(Cl)c2)cc1 | > 100 µM (inactive) | > 100 µM (inactive) | > 100 µM (inactive) | – | – | – | – | – | – |
| O=C1C[C@@H]2[C@@H](c3ccccc3)[C@@H]3C(=O)c4ccccc4NC(=O)[C@H]3[C@]2(O)c2ccccc2N1 | > 100 µM (inactive) | > 100 µM (inactive) | > 100 µM (inactive) | – | – | – | – | – | – |
| C/C(=N\NC(=S)N1CCN(c2ccccn2)CC1)c1ncccn1 | 0.0114 µM (active) | 0.00233 µM (active) | 0.001 µM (active) | – | 1.87 µM (inactive) | 0.0179 µM (active) | 6.93 µM (inactive) | 0.0108 µM (active) | 2.51 µM (inactive) |

| Compound | GI50 (DMS-273) | GI50 (DMS-114) | GI50 (LXFL 529) | GI50 (RXF 631) | GI50 (Hs-578T) | GI50 (NCI/ADR-RES) | GI50 (MDA-N) | GI50 (MCF7) | GI50 (DU-145) |
| --- | --- | --- | --- | --- | --- | --- | --- | --- | --- |
| CC1CCc2c(sc3ncnc(N/N=C/c4ccc(Cl)c(Cl)c4)c23)C1 (stereo unspecified) | 7.98 µM (inactive) | 3.79 µM (inactive) | – | – | – | – | – | – | – |
| Cc1cc(NS(=O)(=O)c2ccc(Nc3c4ccccc4nc4c(C(=O)N5CCN(CCO)CC5)cccc34)cc2)no1 | > 100 µM (inactive) | > 100 µM (inactive) | > 100 µM (inactive) | – | – | – | – | – | – |
| CCN(CC)CCOc1ccc(/C=C(\C#N)c2ccc(OCCN(CC)CC)cc2)cc1 | 13.6 µM (inactive) | 10.8 µM (inactive) | 16.1 µM (inactive) | – | – | – | – | – | 65.6 µM (inactive) |
| N#Cc1cc([N+](=O)[O-])ccc1NC(=O)C(=O)Nc1n[nH]c(N)n1 | > 100 µM (inactive) | > 100 µM (inactive) | > 100 µM (inactive) | > 100 µM (inactive) | – | – | – | – | – |
| CCOC(OC(C)=O)[C@@H]1C=C[C@H](C)N(c2ccc([N+](=O)[O-])cc2)O1 (stereo partly specified) | 3.19 µM (inactive) | 4.69 µM (inactive) | 3.65 µM (inactive) | 4.98 µM (inactive) | – | – | – | – | – |
| Nc1ccccc1C(=O)/C=C/c1ccccc1O | – | 29.8 µM (inactive) | 39.2 µM (inactive) | 55.8 µM (inactive) | – | – | – | – | – |
| O=C(C=C1SCCS1)/C=C\c1ccc(Cl)cc1 | 99.3 µM (inactive) | – | 69.7 µM (inactive) | > 100 µM (inactive) | – | – | – | – | – |
| CS(=O)(=O)c1nc(N)nc2nc[nH]c12 | > 100 µM (inactive) | > 100 µM (inactive) | > 100 µM (inactive) | – | – | – | – | – | – |
| CC(=O)O[C@H]1CCC2[C@@H]3CC[C@]4(C)CC(=O)C=C[C@]4(C)C3CC[C@@]21C (stereo partly specified) | 17.7 µM (inactive) | 11.3 µM (inactive) | 14.8 µM (inactive) | > 50.9 µM (inactive) | – | 22 µM (inactive) | 26.4 µM (inactive) | – | > 100 µM (inactive) |
| CC(=O)CC(=O)Nc1ccccc1[N+](=O)[O-] | > 100 µM (inactive) | > 100 µM (inactive) | > 100 µM (inactive) | – | – | – | – | – | – |
| Cn1c(=O)c2ccc(-c3ccc(Br)cc3)nc2n(C)c1=O | > 100 µM (inactive) | > 100 µM (inactive) | > 100 µM (inactive) | > 100 µM (inactive) | – | – | – | – | – |
| COc1cc([C@@H]2c3cc4c(cc3[C@@H](NCc3ccccc3F)C3COC(=O)[C@@H]32)OCO4)cc(OC)c1O (stereo partly specified) | 1.21 µM (inactive) | 3.45 µM (inactive) | 11.3 µM (inactive) | 2.18 µM (inactive) | – | – | – | – | – |
| Cc1nc2c(o1)/C(=N\c1ccccc1)c1nc(C)oc1/C2=N/c1ccccc1 | 20 µM (inactive) | 25.5 µM (inactive) | 20.8 µM (inactive) | – | – | – | – | – | – |
| CCCCCCCCCCCCCCCCOP(=O)(O)Oc1ccc(/C=C\c2ccc(OP(=O)(O)OCCCCCCCCCCCCCCCC)cc2)cc1 | 25.1 µM (inactive) | 10.1 µM (inactive) | 28.3 µM (inactive) | 48.5 µM (inactive) | – | – | – | – | – |
| COc1cc(C2c3cc4c(cc3[C@@H](NCCN3CCCCC3)C3COC(=O)[C@H]23)OCO4)cc(OC)c1O (stereo partly specified) | 0.123 µM (active) | – | 2 µM (inactive) | – | – | – | – | – | – |
| [N-]=[N+]=NC(CCl)c1cn([C@H]2C[C@H](O)[C@@H](CO)O2)c(=O)[nH]c1=O (stereo partly specified) | > 100 µM (inactive) | > 100 µM (inactive) | > 100 µM (inactive) | – | – | – | – | – | – |
